Experimental data: US20200248178A1, “COMBINATION THERAPIES FOR TREATING MUSCULAR DYSTROPHY” (Sarepta Therapeutics, Inc., priority 2017, published 2020)
Where “and” joins values, the source holds several entries; their conditions need not be identical. Equal values may be shown once.

Assays:
NF-κB pathways = details: phase I, adults; cited from earlier work
NF-κB = details: cited from earlier work
cNF-κB = details: cited from earlier work
Mdx mice = details: cited from earlier work
patient cells = details: cited from earlier work
mouse model of DMD = details: cited from earlier work
DMD patients [1] = assay: North Star Ambulatory Assessment (NSAA); type: in vivo, human; details: end of year three; vs Italian Telethon group
Text: The NSAA is a clinician-reported outcome instrument specifically designed to measure function in ambulatory patients with DMD. The 17 items are each scored on a 0-2 ordinal scale and include assessments of abilities such as rising from the floor, climbing and descending a step, 10 meter walk/run and lifting the head. Over the first year, both the eteplirsen treated boys and the Italian Telethon group declined at a similar rate. However, following year one, as was observed on 6MWT, the decline in function for the eteplirsen group slowed and by the end of year three there was a 2.4 point greater decline for the untreated boys. This difference is of clinical relevance and may represent loss or impairment of up to 2 activities of daily living.

[2] = system: DMD patients amenable to exon 51 skipping; assay: 6 Minute Walk Test, Study 201/202 vs external control; type: in vivo, human
Method: In Study 1, patients were randomized to receive weekly infusions of EXONDYS 51° (30 mg/kg, n=4); EXONDYS 51° (50 mg/kg, n=4), or placebo (n=4) for 24 weeks. The primary endpoint was dystrophin production; a clinical outcome measure, the 6-minute walk test (6MWT), was also assessed. The 6MWT measures the distance that a patient can walk on a flat, hard surface in a period of 6 minutes.
(§1) All 12 patients who participated in Study 1 continued treatment with open-label EXONDYS 51® weekly for an additional 4 years in Study 2. The 4 patients who had been randomized to placebo were re-randomized 1:1 to EXONDYS 51® 30 or 50 mg/kg/week such that there were 6 patients on each dose. Patients who participated in Study 2 were compared to an external control group. The primary clinical efficacy outcome measure was the 6MWT. […] The average dystrophin protein level after 180 weeks of treatment with EXONDYS 51® was 0.93% of the dystrophin level in healthy subjects.
The pre-specified criteria for identification of patients for the external control groups were based on the inclusion criteria for Study 201/202. These included baseline age, steroid use and specific DMD mutation. Each of these represent key prognostic factors that enable identification of a relatively homogenous population that would be expected to decline on the 6MWT.
A group with DMD mutations amenable to exon 51 skipping therapy (N=13, primary external control group).
The 6MWT assessments in both Study 201/202 and the external registries were conducted in a standardized manner according to international guidelines.

DMD patients [3] = assay: Pulmonary function tests (FVC % predicted); type: in vivo, human; details: literature >5% annual decline
Text: In some embodiments, MEP may decline before changes in other pulmonary function tests, including MIP and FVC. In certain embodiments, MEP may be an early indicator of respiratory dysfunction. In certain embodiments, FVC may be used to measure the total volume of air expelled during forced exhalation after maximum inspiration. In patients with DMD, FVC increases concomitantly with physical growth until the early teens. However, as growth slows or is stunted by disease progression, and muscle weakness progresses, the vital capacity enters a descending phase and declines at an average rate of about 8 to 8.5 percent per year after 10 to 12 years of age. In certain embodiments, MIP percent predicted (MIP adjusted for weight), MEP percent predicted (MEP adjusted for age) and FVC percent predicted (FVC adjusted for age and height) are supportive analyses.
Respiratory function in DMD is progressively impaired over time as the dystrophic process affects respiratory muscles, including the diaphragm, leading to significant morbidity and mortality. Eteplirsen treated boys had slower deterioration of respiratory muscle function as measured by FVC % predicted (decrease of ˜2.5% per year) when compared to data from the published literature (>5% annual decline). […]

immune response = system: immune response; set-up: species or system juvenile rats; details: rat, in vivo
Text: Phosphorothioates are known to cause a number of other target organ toxicities in animals, including complement activation and pro-inflammatory effects, coagulopathies, thrombocytopenia, vascular injury, and hepatic Kuppfer cell basophilia (Levin 1998; Monteith 1999; Levin 2001; Henry 2008; Frazier 2014; Engelhardt 2015; Frazier 2015).

[4] = system: exon 51 of dystrophin pre-mRNA; details: normal human skeletal muscle cells or DMD patient muscle cells; cited from earlier work
[5] = system: exon 51 of dystrophin pre-mRNA; details: hDMD mouse model; cited from earlier work
dystrophin [6] = assay: Study 201/202 Week 180 biopsy, IHC percent dystrophin positive fibers (PDPF); type: in vivo, human
Method: (§2) In order to obtain a comprehensive view of dystrophin expression, biopsies from Study 201/202 were analyzed by three complementary assays. First, Western blot was used to quantitate dystrophin following extraction of protein from muscle tissue. Second, immunohistochemical (IHC) images were evaluated by trained, blinded pathologists to assess the percent dystrophin positive fibers (PDPF), providing information on sarcolemma localization and distribution of dystrophin in muscle fibers. Finally, the IHC images were also assessed by a computer algorithm to measure fiber intensity and to quantify dystrophin at the sarcolemmal membrane.

[7] = system: DMD patients amenable to exon 51 skipping; assay: Loss of ambulation, Study 201/202 vs external controls; type: in vivo, human
Text: Ambulatory compromise and irreversible loss of ambulation (LOA) are hallmarks of the progressive muscle degeneration characteristic of DMD. It is a reliable overall indicator of the severity of disease progression and strongly correlates with functional measures such as the 6MWT; it is also less influenced by motivational factors. Furthermore, LOA predicts other major disease milestones such as the need for ventilatory support and survival (Bello 2016). Once confined to a wheelchair, other symptoms tend to follow in rapid succession. Consistent with results of the 6MWT, fewer eteplirsen treated boys lost ambulation (2/12) compared to the external control patients who were amenable to exon 51 skipping therapy (10/13) over the four year time period.
Kaplan-Meier analyses for loss of ambulation were conducted, accounting for missing data. At year three the estimated probability for loss of ambulation was 17% for eteplirsen treated boys compared to 46% of boys from both external control cohorts. At year four, Kaplan-Meier estimates of loss of ambulation was 17% for eteplirsen treated boys compared to 85% for the external control boys amenable to exon 51 skipping. This difference in loss of ambulation over the 4-year period was statistically significant, with a nominal p-value of 0.011 (FIG. 8).

DMD patients [8] = assay: Ability to rise from supine without external support; type: in vivo, human; details: by year three; external control 8%
Text: The ability to rise from supine is a critical activity for DMD patients, is one of the early abilities to be lost and may be predictive of loss of ambulation. In an analysis comparing the ability to rise from a supine position (without external support), 92% of eteplirsen treated vs 85% external control patients had the ability to rise without external support at baseline. By year three, 55% of eteplirsen vs 8% of external control patients had the ability to rise without external support.

dystrophin [9] = assay: Study 201/202 Week 180 biopsy, IHC fiber intensity; type: in vivo, human
Method: as §2

dystrophin [10] = assay: Study 201/202 Week 180 muscle biopsy, Western blot; type: in vivo, human
Method: as §1, §2

dystrophin [11] = assay: Study 3 (Study 301): dystrophin in muscle biopsy by Western blot; type: in vivo, human
Method: Dystrophin levels in muscle tissue were assessed by Western blot. In the 12 patients with evaluable results, the pre-treatment dystrophin level was 0.16%±0.12% (mean±standard deviation) of the dystrophin level in a healthy subject and 0.44%±0.43% after 48 weeks of treatment with EXONDYS 51® (p<0.05). The median increase after 48 weeks was 0.1%.

CC/C=C\C/C=C\C/C=C\C/C=C\C/C=C\C/C=C\CCC(=O)NCCNC(=O)c1ccccc1O [CAT-1004, N-(2-[(4Z,7Z,10Z,13Z,16Z,19Z)-docosa-4,7,10,13,16,19-hexaenamido]ethyl)-2-hydroxybenzamide]
safety and tolerability (NF-κB pathways): safe, well tolerated

CC/C=C\C/C=C\C/C=C\C/C=C\C/C=C\CCCC(=O)NCCNC(=O)c1ccccc1O [CAT-1041]
phenotype (NF-κB; GRMD dog, long-term treatment): improves the phenotype | diaphragm function (NF-κB; dog DMD model): improved diaphragm function | cNF-κB activation in vitro (cNF-κB): inhibit cNF-κB activation in vitro | exercise endurance (Mdx mice; mdx mice): increased exercise endurance | inflammation and fibrosis (Mdx mice; mdx mice): reduced inflammation and fibrosis | muscle function (Mdx mice; mdx mice): preserves muscle function | muscle fibrosis (Mdx mice; mdx mice, long-term studies): reduces muscle fibrosis | skeletal muscle weight (Mdx mice; mdx mice, long-term studies): increases skeletal muscle weight | phenotype (Mdx mice; mdx mouse, long-term treatment): improves the phenotype | diaphragm function (Mdx mice; mouse DMD model): improved diaphragm function

O=C1CN(/N=C/c2ccc(-c3ccc([N+](=O)[O-])cc3)o2)C(O)=N1 [dantrolene]
antisense-mediated exon skipping (patient cells): enhance antisense-mediated exon skipping | antisense-mediated exon skipping (mouse model of DMD): enhance antisense-mediated exon skipping

Eteplirsen
NSAA: greater decline for the untreated boys (DMD patients [1]): 2.4 point | 6MWT treatment benefit in sensitivity analyses ([2]; four year results, covariates age, 6MWT, steroid use): > 100 meter | 6MWT advantage vs external control ([2]; year four, p=0.0005): 162 meter | 6MWT advantage vs external control ([2]; year three, N=12 vs N=13, p=0.005): 148 meter | FVC % predicted decrease (DMD patients [3]): ~2.5 % per year | effect on the immune response (immune response): no adverse effect on the immune response | induction of exon 51 skipping in vitro [4]: potent inducer of exon 51 skipping | exon 51 skipping in vivo [5]: confirmed in vivo | Difference of Means (Treated vs. Untreated) (dystrophin [6]): +16.27% | Treated (Mean % Dystrophin of Normal) (dystrophin [6]): 17.39% | Fold Increase (dystrophin [6]; treated vs untreated): 15.5 fold | boys who lost ambulation ([7]; over a three year time period, external control (any exon skipping) 18/50): 2/12 | boys who lost ambulation ([7]; over the four year time period, external control 10/13): 2/12 | Kaplan-Meier estimate of loss of ambulation ([7]; year four, external control 85%, p 0.011): 17% | Kaplan-Meier estimated probability for loss of ambulation ([7]; year three, external controls 46%): 17% | patients with ability to rise without external support (DMD patients [8]): 55% | Difference of Means (Treated vs. Untreated) (dystrophin [9]): +13.20% | Treated (Mean % Dystrophin of Normal) (dystrophin [9]): 22.61% | Fold Increase (dystrophin [9]; treated vs untreated): 2.4 fold | Difference of Means (Treated vs. Untreated) (dystrophin [10]; Western Blot, Week 180): +0.85% | Treated (Mean % Dystrophin of Normal) (dystrophin [10]; Western Blot, Week 180): 0.93% | Fold Increase in de novo dystrophin (dystrophin [10]; Western Blot, Week 180, relative to untreated controls): 11.6 fold | average dystrophin protein level after 180 weeks of treatment (dystrophin [10]; Western blot, eleven patients, 30 or 50 mg/kg/week): 0.93 % of the dystrophin level in healthy subjects | Week 48 % normal dystrophin (dystrophin [11]; 30 mg/kg weekly, week 48, individual patients 1-12 and mean, listed as EXONDYS 51, 30 mg/kg): 0.10 % normal dystrophin and 1.02 % normal dystrophin and 0.30 % normal dystrophin and 0.42 % normal dystrophin and 1.57 % normal dystrophin and 0.12 % normal dystrophin and 0.47 % normal dystrophin and 0.09 % normal dystrophin and 0.21 % normal dystrophin and 0.26 % normal dystrophin and 0.36 % normal dystrophin and 0.37 % normal dystrophin | median increase in dystrophin after 48 weeks (dystrophin [11]; 12 evaluable patients): 0.1% | dystrophin level after 48 weeks of treatment (mean±standard deviation) (dystrophin [11]; 12 evaluable patients, 30 mg/kg weekly, p<0.05 vs pre-treatment): 0.44%±0.43% | Change from Baseline % normal dystrophin (dystrophin [11]; week 48 vs pre-treatment baseline, individual patients 1-12 and mean, listed as EXONDYS 51): 0.06 % normal dystrophin and 0.85 % normal dystrophin and −0.07 % normal dystrophin and 0.25 % normal dystrophin and 1.33 % normal dystrophin and 0.01 % normal dystrophin (2×) and 0.43 % normal dystrophin and 0.07 % normal dystrophin and 0.03 % normal dystrophin and 0.13 % normal dystrophin and 0.31 % normal dystrophin
